Data from the supplement of paper PMC7244745.
Structures can show the parent of a compound that is named as a salt. ± gives the uncertainty stated by the source.

Assays:
[1] = test system: Klebsiella pneumoniae ATCC 13882; assay: rate of pH (A557-A630) increase, Gompertz fit (10^-4 s-1); higher = faster ureolysis; extreme values may be limits of the assay
Experimental: (§1)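 Klebsiella pneumoniae ATCC 13882 (start OD600 0.05) grown in M9U medium with 40 mM urea and phenol red plus inhibitor, in triplicate in 96-well plates. A557 and OD630 were read every 15 min for 24 h. Ureolysis was followed as the pH-related A557-A630: onset time, Gompertz-fit rate and final value. Growth was followed as OD630.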

[2] = test system: Klebsiella pneumoniae ATCC 13882; assay: final OD630 (growth) after 24 h; higher = more bacterial growth; extreme values may be limits of the assay
Experimental: as §1

[3] = test system: Klebsiella pneumoniae ATCC 13882; assay: onset of ureolytic pH increase; higher = more delayed ureolysis (inhibition)
Experimental: as §1

[4] = test system: Klebsiella pneumoniae ATCC 13882; assay: final pH-related absorbance (A557-A630) after 24 h (absorbance units); higher = more ureolysis; extreme values may be limits of the assay
Experimental: as §1

Row | Compound | rate of pH ([1]; 0.1 mM) | rate of pH ([1]; 1 mM) | rate of pH ([1]; 10 mM) | final OD630 ([2]; 0.1 mM) | final OD630 ([2]; 1 mM) | final OD630 ([2]; 10 mM) | onset of ureolytic pH increase ([3]; 0.1 mM) [h] | onset of ureolytic pH increase ([3]; 1 mM) [h] | onset of ureolytic pH increase ([3]; 10 mM) [h] | final pH-related absorbance ([4]; 0.1 mM) | final pH-related absorbance ([4]; 1 mM) | final pH-related absorbance ([4]; 10 mM) | further results
1 | CC(=O)NC(N)=S [Acetylthiourea] |  |  |  |  |  |  |  |  |  |  |  |  | rate of pH ([1]; 0.05 mM): 2 ± 0.057; rate of pH ([1]; 0.5 mM): 2.03 ± 0.042; rate of pH ([1]; 5 mM): 2.62 ± 0.37; final OD630 ([2]; 0.05 mM): 0.491 ± 0.011; final OD630 ([2]; 0.5 mM): 0.491 ± 0.004; final OD630 ([2]; 5 mM): 0.507 ± 0.021; onset of ureolytic pH increase ([3]; 0.05 mM): 7.13 ± 0.148 h; onset of ureolytic pH increase ([3]; 0.5 mM): 7.095 ± 0.065 h; onset of ureolytic pH increase ([3]; 5 mM): 6.92 ± 0.267 h; final pH-related absorbance ([4]; 0.05 mM): 0.241 ± 0.011; final pH-related absorbance ([4]; 0.5 mM): 0.246 ± 0.002; final pH-related absorbance ([4]; 5 mM): 0.284 ± 0.05
2 | O=[N+]([O-])[O-].[Ag+] [AgNO3] | 0 | 0 | 0 | 0 | 0 | 0 | > 25 | > 25 | > 25 | 0 | 0 | 0 | 
3 | NC(=O)NC1NC(=O)NC1=O (stereo not drawn) [Allantoin] |  |  |  |  |  |  |  |  |  |  |  |  | rate of pH ([1]; 0.033 mM): 1.66 ± 0.032; rate of pH ([1]; 0.33 mM): 1.718 ± 0.017; rate of pH ([1]; 3.33 mM): 1.68 ± 0.02; final OD630 ([2]; 0.033 mM): 0.525 ± 0.0093; final OD630 ([2]; 0.33 mM): 0.507 ± 0.0058; final OD630 ([2]; 3.33 mM): 0.495 ± 0.0081; onset of ureolytic pH increase ([3]; 0.033 mM): 9.624 ± 0.085 h; onset of ureolytic pH increase ([3]; 0.33 mM): 9.619 ± 0.0733 h; onset of ureolytic pH increase ([3]; 3.33 mM): 10 ± 0.117 h; final pH-related absorbance ([4]; 0.033 mM): 0.231 ± 0.0095; final pH-related absorbance ([4]; 0.33 mM): 0.216 ± 0.003; final pH-related absorbance ([4]; 3.33 mM): 0.222 ± 0.0053
4 | C=CCNC(N)=S [Allylthiourea] | 1.47 ± 0.046 | 1.454 ± 0.0015 | 1.383 ± 0.0037 | 0.417 ± 0.013 | 0.397 ± 0.015 | 0.366 ± 0.0047 | 9.392 ± 0.0683 | 9.93 ± 0.483 | 12.93 ± 0.123 | 0.159 ± 0.0052 | 0.154 ± 0.0052 | 0.135 ± 0.0034 | 
5 | OB(O)O [Boric acid] | 1.62 ± 0.03 | 1.48 ± 0.2 | 0 | 0.437 ± 0.0082 | 0.432 ± 0.0018 | 0.297 ± 0.0064 | 9.85 ± 0.103 | 10.3 ± 0.567 | > 15 | 0.409 ± 0.0087 | 0.418 ± 0.018 | 0 | 
6 | S=C=S [Carbon disulfide] |  |  |  |  |  |  |  |  |  |  |  |  | rate of pH ([1]; 0.0285 mM): 1.547 ± 0.011; rate of pH ([1]; 0.285 mM): 1.537 ± 0.0055; rate of pH ([1]; 2.85 mM): 1.561 ± 0.0093; final OD630 ([2]; 0.0285 mM): 0.416 ± 0.0039; final OD630 ([2]; 0.285 mM): 0.428 ± 0.0051; final OD630 ([2]; 2.85 mM): 0.419 ± 0.0062; onset of ureolytic pH increase ([3]; 0.0285 mM): 10.26 ± 0.0115 h; onset of ureolytic pH increase ([3]; 0.285 mM): 10.2 ± 0.0433 h; onset of ureolytic pH increase ([3]; 2.85 mM): 10.24 ± 0.07 h; final pH-related absorbance ([4]; 0.0285 mM): 0.169 ± 0.0022; final pH-related absorbance ([4]; 0.285 mM): 0.175 ± 0.0006; final pH-related absorbance ([4]; 2.85 mM): 0.175 ± 0.0058
7 | CN(CC(=O)O)C(=N)N [Creatine monohydrate] |  |  |  |  |  |  |  |  |  |  |  |  | rate of pH ([1]; 0.0026 mM): 1.73 ± 0.023; rate of pH ([1]; 0.026 mM): 1.73 ± 0.059; rate of pH ([1]; 0.26 mM): 1.78 ± 0.032; final OD630 ([2]; 0.0026 mM): 0.503 ± 0.012; final OD630 ([2]; 0.026 mM): 0.496 ± 0.0032; final OD630 ([2]; 0.26 mM): 0.497 ± 0.0049; onset of ureolytic pH increase ([3]; 0.0026 mM): 9.537 ± 0.0367 h; onset of ureolytic pH increase ([3]; 0.026 mM): 9.59 ± 0.147 h; onset of ureolytic pH increase ([3]; 0.26 mM): 9.419 ± 0.0783 h; final pH-related absorbance ([4]; 0.0026 mM): 0.217 ± 0.0008; final pH-related absorbance ([4]; 0.026 mM): 0.22 ± 0.0025; final pH-related absorbance ([4]; 0.26 mM): 0.22 ± 0.0028
8 | CN1CC(=O)NC1=N [Creatinine] | 2.186 ± 0.011 | 2.17 ± 0.023 | 2.19 ± 0.038 | 0.505 ± 0.0042 | 0.495 ± 0.013 | 0.517 ± 0.0028 | 9.588 ± 0.07 | 9.675 ± 0.0283 | 9.58 ± 0.14 | 0.146 ± 0.0004 | 0.158 ± 0.0061 | 0.157 ± 0.005 | 
9 | NCCS [Cysteamine hydrochloride] | 1.44 ± 0.07 | 0.893 ± 0.012 | 0.736 ± 0.0043 | 0.5 ± 0.0053 | 0.487 ± 0.0016 | 0.447 ± 0.0027 | 8.51 ± 0.103 | 10.12 ± 0.02 | 15.19 ± 0.0183 | 0.256 ± 0.0053 | 0.246 ± 0.0058 | 0.097 ± 0.0002 | 
10 | O=C(O)CN(CCN(CC(=O)O)CC(=O)O)CCN(CC(=O)O)CC(=O)O [Diethylenetriaminepentaacetic acid] |  |  |  |  |  |  |  |  |  |  |  |  | rate of pH ([1]; 0.004 mM): 2.08 ± 0.049; rate of pH ([1]; 0.036 mM): 0; rate of pH ([1]; 0.364 mM): 0; final OD630 ([2]; 0.004 mM): 0.439 ± 0.001; final OD630 ([2]; 0.036 mM): 0.311 ± 0.003; final OD630 ([2]; 0.364 mM): 0.21 ± 0.005; onset of ureolytic pH increase ([3]; 0.004 mM): 9.47 ± 0.183 h; onset of ureolytic pH increase ([3]; 0.036 mM): > 15 h; onset of ureolytic pH increase ([3]; 0.364 mM): > 15 h; final pH-related absorbance ([4]; 0.004 mM): 0.196 ± 0.016; final pH-related absorbance ([4]; 0.036 mM): 0; final pH-related absorbance ([4]; 0.364 mM): 0
11 | NCCNCCNCCN [Triethylenetetraamine] |  |  |  | 0.448 ± 0.091 | 0.384 ± 0.017 | 0 |  |  |  |  |  |  | 
